{
  "source": "paper PMC5370183",
  "about": "“Kinetics of the LOV domain of ZEITLUPE determine its circadian function in Arabidopsis” (eLife, 2017)",
  "key": {"[1]": {"molecular_target": "T1, ZEITLUPE LOV domain (ZTL 29-165, ZTL-S) (Arabidopsis thaliana, UniProt Q94BT6, V48I/G80R)", "T1 construct": "gene ADO1; LOV domain, residues 29-165, E. coli, 6xHis or GST tag cleaved by TEV; monomer 16 kDa, homodimer 33 kDa (MALS)", "T1 sequence (Q94BT6 29-165 V48I/G80R)": "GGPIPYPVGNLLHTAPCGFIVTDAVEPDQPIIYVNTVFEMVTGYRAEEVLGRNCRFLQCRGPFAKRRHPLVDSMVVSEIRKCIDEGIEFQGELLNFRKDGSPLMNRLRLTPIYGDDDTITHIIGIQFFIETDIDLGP", "experiment": "X-ray crystal structure", "assay_type": "binding", "conditions": "dark state (5SVV, 2.1 Å) non-covalent; light state (5SVW, 2.3 Å) covalent C4a adduct with C82"}, "[2]": {"molecular_target": "T2, ZEITLUPE LOV domain (ZTL 29-165, ZTL-S) (Arabidopsis thaliana, UniProt Q94BT6)", "T2 construct": "gene ADO1; LOV domain, residues 29-165, E. coli, 6xHis or GST tag cleaved by TEV; monomer 16 kDa, homodimer 33 kDa (MALS)", "T2 sequence (Q94BT6 29-165)": "as the sequence (Q94BT6 29-165 V48I/G80R) above, with I20V, R52G counted along it", "experiment": "X-ray crystal structure", "assay_type": "binding", "conditions": "dark state, 2.5 Å; FMN non-covalently bound next to C82"}},
  "data": [
    {"smiles": "Cc1cc2nc3c(=O)[nH]c(=O)nc-3n(C[C@H](O)[C@H](O)[C@H](O)COP(=O)(O)O)c2cc1C", "note": "[FMN]", "values": [
      {"measurement": "X-ray crystal structure", "setting": "[1]", "value": "Light state crystal structure of V48I:G80R"},
      {"measurement": "X-ray crystal structure", "setting": "[2]", "value": "The helices cradle the photoreactive FMN adjacent to C82 (Eα helix)."}
    ]}
  ]
}
